Measured values reported in a melting point compilation (Tetko et al.; mined from patent text by program, amines drawn as free bases though some values may be those of a salt).

SMILES | melting point [°C]
CNC(=O)N1N=C(c2ccc(N)cc2)c2cc(Cl)ccc2CC1C (stereo not given) | 115 to 118
Nc1nc2ccccc2c2c1ncn2CC1CCCCO1 (stereo not given) | 206 to 210
CC(=O)NN=Cc1ccc(N2CCN(C)CC2)nc1F | 210 to 212
CCCC[C@]12OC1CC[C@]1(C)CC[C@@H]3C[C@@]12OC3(C)C (stereo not given in full) | 70 to 72
CN1CCC(c2cccc3ccc(-n4cnc5ncccc54)cc23)CC1 | 118 to 120
COc1ccc(C(=O)C=CC(=O)O)cc1OC | 174 to 175
Nc1ccc2ccc(Oc3cccnc3)nc2n1 | 178
CCCCn1cnc2c(OCc3cccs3)nc(Nc3ccc(OCC)nc3)nc21 | 112 to 114
COc1ccc(CNc2nnc(NCCCO)c3ccc(Cl)cc23)cc1Cl | 131 to 138
Cc1ccc(-c2ncc(N(C)CCCCO)nc2-c2ccc(C)cc2)cc1 | 94 to 96
CCCCCCCCCCC[C@H](CC(=O)N[C@@H](CO)C(=O)OCc1ccccc1)OC(=O)CCCCCC | 46 to 48
COc1ccc(N2CCN(c3c(C)c(C)c4c(c3C)C(=O)C(C)(C)O4)CC2)cc1C | 129 to 131
CCN1C(=O)C(=O)N(c2cc(Cl)ccc2C)C1=S | 173 to 174
COP(=O)(CC1(O)O[C@H](COCc2ccccc2)[C@@H](OCc2ccccc2)[C@H](OCc2ccccc2)[C@H]1OCc1ccccc1)OC (stereo not given in full) | 112 to 113
O=c1c(-c2cccc(C(F)(F)F)c2Cl)nn(CCCCC(F)(F)F)c2cccc(Cl)c12 | 137 to 138
COc1cc2c(c3c1OC(C)(C)C3)C(c1cccc(N)c1)=NC(C)(C)C2 | 131 to 134
Cc1cnc2ccc3c(c2c1)OC(CN1CC=C(c2c[nH]c4ccccc24)CC1)CO3 (stereo not given) | 211 to 213
CN(CCOc1ccc(C(N)=O)cc1)CCc1ccc(NS(C)(=O)=O)cc1 | 147
O=C(c1ccccc1)C(O)Cc1cccc(O)c1 (stereo not given) | 118 to 119
O=C(O)c1cc(-n2c(=O)cc(C(F)(F)F)[nH]c2=O)ccc1Cl | 311 to 312
COC(=O)c1cc(I)ccc1OC | 48 to 50

SMILES | melting point [°C]
COC(=O)CCC(NC(=O)Nc1cccc(C)c1)C(=O)O (racemic) | 127
N#Cc1ccc(-c2ccc(O)cc2)cc1F | 67 to 68
c1ccc(C2OC3(CCNCC3)N3CCCCC23)cc1 (stereo not given) | 169 to 171
CCOC(=O)Cc1ccc(NC(=O)/C=C/c2c(C)noc2-c2ccccc2)cc1 | 164 to 165
CCOC(=O)c1cc(CC)sc1Nc1ccc(F)cc1N | 82 to 84
CN(C)C(=O)c1nc2ccccc2n(Cc2ccccc2)c1=O | 154 to 155
COCCSCC(=O)[C@H](Cc1ccccc1)NC(=O)[C@H](CC(C)C)NC(=O)OCc1ccccc1 | 68 to 69
N#Cc1cscc1Nc1ccc(Cl)cc1[N+](=O)[O-] | 214
CN1C(=O)C(N)C(c2ccccc2)=Nc2ccccc21 (stereo not given) | 178 to 179
CCOP(=O)(CCNC(=O)c1c(CC)nc2cc(OC)c(OC)cc2c1-c1ccc(OC)c(OC)c1)OCC | 157 to 158
ON=C1CCOc2ccccc21 | 114 to 117
C[C@H](NC1=NS(=O)(=O)c2sc(Cl)cc2N1)c1ccccc1 | 195 to 204
O=S1(=O)c2ccccc2N(c2cc(F)cc(F)c2)c2ccccc21 | 255 to 258
COC(=O)c1ccc(OC(=C(Oc2ccc(C(=O)OC)cc2)C(F)(F)F)C(F)(F)F)cc1 | 123
CCOC(=O)C(=Cc1ccccn1)C(=O)c1ccc(F)cc1 | 128 to 129
CNS(=O)(=O)c1ccc(N2CCN(c3ccncc3)CC2)cc1 | 204 to 206
Cc1nc(-c2ccc(CN3C(=O)C4(COc5cc6c(cc54)OCCO6)c4ccccc43)cc2)no1 (stereo not given) | 174 to 175
N#Cc1ccc(N2CCOCC2)c2ccccc12 | 128 to 129
O=C(Nc1ccc2ccc(Oc3ccccc3)nc2n1)c1cccs1 | 176
OCC(CC(F)(F)F)Nc1nc(-c2ccc(Br)cc2)cs1 (stereo not given) | 120 to 121

Other lines, results leading:

melting point [°C] | SMILES
93 to 95 | O=C(c1ccnc(F)c1)N1CCC[C@H](c2nc(-c3ccc(F)cc3)no2)C1
179 to 181 | O=C(NCc1ccc(Cl)cc1)c1cnc2ccc(C#CCO)cn2c1=O
145 to 146 | CCCCCCCCC(c1ccccc1)S(=O)(=O)NC(=O)Nc1c(C(C)C)cccc1C(C)C (stereo not given)
208 to 210 | Cc1ccc(NC(=O)NN(C(=O)c2ccccc2)C(C)(C)C)cc1
188 | O=C(c1ccc2c(c1)CCO2)N1Cc2cccnc2Nc2ccccc21
172 to 174 | CC(=O)NNC(=O)c1ccccc1
86 to 88.5 | O=C1c2c(-c3ccccc3)noc2CCC1CCCN1CCOCC1 (stereo not given)
142 to 143 | CCOC(=O)c1c(C)c(C(=O)c2ccc(SC)n2C)n2c1C(C(=O)OCC)CC2 (stereo not given)
239 to 241 | CCNCC1CCN(c2c(F)cc3c(=O)c(C(=O)O)cn(C4CC4)c3c2C(F)(F)F)C1 (stereo not given)
126 to 129 | COc1ccc(C(=O)C2=CCCCC2)c(Cl)c1Cl
149 to 150 | CC(C)(C)COc1ccc(NC(=O)c2cnn(-c3ccc(F)cc3)c2Cl)cc1C#N
65 to 68 | CN1C[C@H](O)C[C@H]1CCOc1ccc(Cl)cc1CCc1ccccc1
70 to 80 | CCN(C(=O)c1ccccc1)C(=NC(=O)c1ccccc1)NCc1ccc(S(N)(=O)=O)cc1
238 to 239 | O=C(O)c1cc(Br)cc2c1NCCC2C(=O)O (stereo not given)
113 | COC(=O)Cc1nc(-c2ccc(Cl)cc2)oc1Oc1cc(C)ccc1C
73 to 76 | CC(C)(C)OC(=O)N[C@@H](CCC(=O)OCc1ccccc1)C(=O)OCc1ccccc1
180 to 183 | CC(C)(C)OC(=O)CN1C(=O)[C@@H](N[C@@H](CCC2CCCCC2)C(=O)O)COc2ccccc21
109 to 111 | CCCn1nc(C(=O)OCC)cc1CC(C)(C)NC(=O)OC(C)(C)C
82 to 85 | COC(=O)C1=C(C)NC(C)=C(C(=O)OCCN2CCC(C(c3ccccc3)c3ccccc3)CC2)C1c1cccc([N+](=O)[O-])c1 (stereo not given)
191 to 194 | CNc1nc2ccc(-c3nc4cc(C)ccn4c3C)cc2s1

melting point [°C] | SMILES
233 to 236 | CSC1=NC(=O)/C(=C/c2ccccc2Nc2c(Cl)ccc(C)c2Cl)S1
146 to 149 | CC(=O)NC[C@H]1CN(c2ccc(N3CCC(O)(CN=[N+]=[N-])CC3)c(F)c2)C(=O)O1
102 to 103 | O=C(O)CCc1ccc(CCNS(=O)(=O)c2ccccc2)cc1
153 to 155 | CNS(=O)(=O)c1cc(S(=O)(=O)Cl)c(Cl)cc1N
243 to 245 | Cc1c(NC(=O)c2c(C(=O)N3CCC3)cnn2C)ccn2nc(-c3ccccc3)nc12
166 to 169 | O=C(Nc1c(Cl)cccc1Cl)C1CC1
197 to 199 | N#Cc1c(N2CCCC2)cc(-c2ccc(Cl)cc2)c2c1Cc1ccccc1-2
178 to 180 | Oc1c(S)cc(I)cc1I
52 to 56 | COC(=O)C(Cc1ccc(OCC(=O)Nc2ccc(Oc3ccc(C45CC6CC(CC(C6)C4)C5)cc3)cc2N(C)C(=O)OC(C)(C)C)cc1)OCc1ccc(F)cc1 (stereo not given)
151 to 154 | CC1=C(C(=O)OCCOC(C)C)C(c2cccc(Cl)c2Cl)C(c2nnco2)=C(C)N1 (stereo not given)
60 to 61 | CCOC(=O)C1=CCCCC1S(=O)(=O)Nn1cccc1Cl (stereo not given)
172 to 174 | CC(C)C1(c2ccccc2O)C(=O)N(C)c2ccccc21 (stereo not given)
135 | N#Cc1ccc(-n2c(=O)cc(C(F)(F)F)[nH]c2=O)cc1[N+](=O)[O-]
57 to 58 | O=C(O)c1c(OCCF)cccc1OCCF
118 | CC#CCOc1cc(Oc2ccc(Cl)cc2F)ncn1
227 to 228 | Nc1ccc(C=Cc2nc3ccccc3nc2C=Cc2ccc(N)cc2)cc1
95.5 to 98 | CCCN1CCN(c2nc3ccc(N=CN(C)C)cc3nc2N2CCN(CCC)CC2)CC1
162 to 164 | O=C(c1ccc(F)cc1)N1CCC[C@H](c2nc(-c3ccc([N+](=O)[O-])cc3)no2)C1
235 to 236 | c1ccc2[nH]c(CN3CCOCC3)nc2c1
104 to 106 | O=C1CCC(CCN2CCN(c3ccccn3)CC2)CC1

melting point [°C] | SMILES
129 to 130 | CCOC(=O)c1c(CN2CCCCC2)nc2cc(OC)c(OC)cc2c1-c1ccc(OC)cc1
198 to 199 | O=C(Cc1ccccc1C(=O)O)Nc1cccc(/C=C/c2csc(C3CCC3)n2)c1
155 to 158 | CC(C)Cc1ccc(C2(C)Oc3ccc(C(=O)c4c[nH]c5ccccc45)cc3O2)cc1 (single isomer, unassigned; (-))
245 to 248 | Cn1c(=O)[nH]c(=O)c2c1ncn2Cc1noc(C2CCCCC2)n1
150 to 152 | CCC(COC)Nc1nc(C)nc(N2CCc3cc(OC)cc(Cl)c32)c1I (stereo not given)
79.5 to 82 | CC(C)c1ccc(C(Cl)=NOS(C)(=O)=O)cc1
151 to 153 | CCCN(C(=O)OC(C)(C)C)C(CC(C)C)C(=O)NCC(=O)Oc1c(Cl)c(Cl)c(Cl)c(Cl)c1Cl (stereo not given)
67 to 69 | CCC(=O)NCC1CC1c1cccc2nnsc12 (stereo not given)
100 to 102 | CCOC(=O)C(CC)Cc1ccc(NC(=O)Cc2ccc(-n3cccc3)cc2)cc1 (stereo not given)
121 to 122 | CC1CCCCC1OC(=O)c1cc(NC(=O)c2ccccc2)ccc1Cl (stereo not given)
158 | CCC1CCC(C)N(C(=O)CN(C(=O)CNC(=O)Nc2cccc(C)c2)c2ccccc2)C1 (stereo not given)
79 to 80 | O=C(CBr)C(O)(c1ccccc1)C1CCC1 (stereo not given)
136 to 137 | CC(=O)C=Cc1ccccc1O
123 | CC(C)Nc1cncc(C(=NCCO[N+](=O)[O-])NC#N)c1
134 to 136 | O=C1CCN(CCCn2c(=O)[nH]c3ccccc32)CC1
53 to 57 | COC(=O)c1cc(-c2cccc([N+](=O)[O-])c2)cc2c1OCC2
101 | Clc1cccc(C(c2ccccc2)(c2ccccc2)n2ccnc2)c1
42 to 43 | COCOc1ccc(CO[Si](C)(C)C(C)(C)C)c2cccc(C)c12
> 280 | CCn1c(=O)c2c(nc(C=Cc3ccc(C(=O)O)cc3OC)n2C)n(CC)c1=O
